Legend:
MCF7 = assay: cells; conditions: Homo sapiens, MCF7, 72 h
Description: Antiproliferative activity against human MCF7 cells after 72 hrs by CCK8 assay

Mus musculus [1] = assay: Toxicity in human A549 cells xenografted in BALB/C nude mouse assessed as body weight loss at 100 to 150 mg/kg, po administered once daily for 21 days starting day 11 after tumor cells implantation; type: organism-based; conditions: in vivo, 504 h
Histone deacetylase 3 = Histone deacetylase 3 (Homo sapiens, UniProt O15379); assay: Inhibition of HDAC3 (unknown origin) after 30 mins by fluorescence assay
[2] = molecular target: E3 ubiquitin-protein ligase Mdm2 (Homo sapiens, UniProt Q00987); assay: Inhibition of MDM2 (unknown origin) preincubated for 30 mins by fluorescence polarization assay
Sequence of E3 ubiquitin-protein ligase Mdm2 (Q00987 whole entry): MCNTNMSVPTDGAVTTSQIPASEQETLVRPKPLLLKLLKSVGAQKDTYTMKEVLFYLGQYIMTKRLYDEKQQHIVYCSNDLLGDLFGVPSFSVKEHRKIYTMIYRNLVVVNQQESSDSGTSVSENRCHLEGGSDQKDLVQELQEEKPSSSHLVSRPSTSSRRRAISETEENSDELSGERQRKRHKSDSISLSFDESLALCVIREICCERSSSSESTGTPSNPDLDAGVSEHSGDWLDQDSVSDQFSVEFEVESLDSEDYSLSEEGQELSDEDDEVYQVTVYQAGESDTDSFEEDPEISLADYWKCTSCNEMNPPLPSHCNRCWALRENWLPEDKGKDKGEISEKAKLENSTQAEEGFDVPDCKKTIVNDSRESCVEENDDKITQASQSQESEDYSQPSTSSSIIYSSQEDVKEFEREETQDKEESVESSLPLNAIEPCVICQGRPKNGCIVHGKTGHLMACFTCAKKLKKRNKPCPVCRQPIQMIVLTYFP

A549 [3] = assay: Antiproliferative activity against human A549 cells after 72 hrs by CCK8 assay; type: functional, cell-based; conditions: A549, 72 h
Rattus norvegicus [4] = assay: AUC (0 to infinity) in Sprague-Dawley rat at 2 mg/kg, iv administered as bolus dose by LC-MS/MS analysis; type: ADME, organism-based; design: dose 2 mg/kg, time infinity, route intravenous; conditions: in vivo
Histone deacetylase 2 = Histone deacetylase 2 (Homo sapiens, UniProt Q92769); assay: Inhibition of HDAC2 (unknown origin) after 30 mins by fluorescence assay
Sequence of Histone deacetylase 2 (Q92769 whole entry): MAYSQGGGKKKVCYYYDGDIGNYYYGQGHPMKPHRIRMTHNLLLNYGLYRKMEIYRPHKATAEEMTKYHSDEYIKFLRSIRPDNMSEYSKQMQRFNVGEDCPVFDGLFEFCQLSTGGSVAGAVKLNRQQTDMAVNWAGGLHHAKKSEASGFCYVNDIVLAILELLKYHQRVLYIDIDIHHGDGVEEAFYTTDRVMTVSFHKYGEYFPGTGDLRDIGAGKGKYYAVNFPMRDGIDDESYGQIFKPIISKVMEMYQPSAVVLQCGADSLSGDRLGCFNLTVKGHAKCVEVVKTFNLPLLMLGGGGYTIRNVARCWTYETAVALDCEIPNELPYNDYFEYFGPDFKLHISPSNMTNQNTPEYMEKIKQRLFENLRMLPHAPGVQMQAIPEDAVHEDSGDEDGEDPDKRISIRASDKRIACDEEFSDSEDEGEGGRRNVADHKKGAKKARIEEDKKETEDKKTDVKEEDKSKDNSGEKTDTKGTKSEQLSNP

Rattus norvegicus [5] = assay: Volume of distribution at steady state in Sprague-Dawley rat at 2 mg/kg, iv administered as bolus dose by LC-MS/MS analysis; type: ADME, organism-based; conditions: in vivo
[6] = molecular target: T1, Protein deacetylase HDAC6 (Homo sapiens, UniProt Q9UBN7); assay: Inhibition of HDAC6 (unknown origin) after 30 mins by fluorescence assay
T1 sequence (Q9UBN7 whole entry): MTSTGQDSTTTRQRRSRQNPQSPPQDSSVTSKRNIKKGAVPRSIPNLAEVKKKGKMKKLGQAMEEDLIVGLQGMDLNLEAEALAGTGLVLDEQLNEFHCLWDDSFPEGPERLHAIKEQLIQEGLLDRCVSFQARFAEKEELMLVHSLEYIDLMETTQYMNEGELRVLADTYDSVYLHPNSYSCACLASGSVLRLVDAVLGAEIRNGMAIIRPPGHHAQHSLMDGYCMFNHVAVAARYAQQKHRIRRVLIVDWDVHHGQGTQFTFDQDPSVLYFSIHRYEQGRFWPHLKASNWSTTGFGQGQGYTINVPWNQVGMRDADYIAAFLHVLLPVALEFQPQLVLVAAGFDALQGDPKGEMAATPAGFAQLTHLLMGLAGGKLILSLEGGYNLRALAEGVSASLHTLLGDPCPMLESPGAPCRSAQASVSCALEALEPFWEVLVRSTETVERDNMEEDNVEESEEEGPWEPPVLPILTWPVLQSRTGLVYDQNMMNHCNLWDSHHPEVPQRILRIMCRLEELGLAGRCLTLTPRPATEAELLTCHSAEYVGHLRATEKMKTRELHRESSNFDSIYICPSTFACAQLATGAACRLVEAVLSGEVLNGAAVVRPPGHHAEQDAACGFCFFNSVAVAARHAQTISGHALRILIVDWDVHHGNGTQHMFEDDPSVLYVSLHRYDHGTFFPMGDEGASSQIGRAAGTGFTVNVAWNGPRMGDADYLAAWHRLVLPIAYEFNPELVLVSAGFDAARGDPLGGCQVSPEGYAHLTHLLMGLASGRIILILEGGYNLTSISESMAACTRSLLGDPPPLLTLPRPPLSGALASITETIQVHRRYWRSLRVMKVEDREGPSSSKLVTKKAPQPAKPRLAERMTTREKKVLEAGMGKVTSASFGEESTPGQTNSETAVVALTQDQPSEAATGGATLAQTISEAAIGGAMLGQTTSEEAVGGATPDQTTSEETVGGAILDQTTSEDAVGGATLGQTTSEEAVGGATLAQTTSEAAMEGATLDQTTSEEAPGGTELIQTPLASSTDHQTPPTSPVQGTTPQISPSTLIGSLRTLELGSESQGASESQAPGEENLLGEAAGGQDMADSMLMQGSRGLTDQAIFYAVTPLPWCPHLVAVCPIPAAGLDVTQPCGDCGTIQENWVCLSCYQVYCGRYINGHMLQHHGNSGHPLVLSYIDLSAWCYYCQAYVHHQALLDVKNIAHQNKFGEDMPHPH

A549 [7] = assay: animal or person; type: functional, Homo sapiens; conditions: Mus musculus, A549, po, read-out: TGI
Histone deacetylase 1 = Histone deacetylase 1 (Homo sapiens, UniProt Q13547); assay: Inhibition of human recombinant full length HDAC1 using fluorogenic substrate 3 after 30 mins by fluorescence assay
Sequence of Histone deacetylase 1 (Q13547 whole entry): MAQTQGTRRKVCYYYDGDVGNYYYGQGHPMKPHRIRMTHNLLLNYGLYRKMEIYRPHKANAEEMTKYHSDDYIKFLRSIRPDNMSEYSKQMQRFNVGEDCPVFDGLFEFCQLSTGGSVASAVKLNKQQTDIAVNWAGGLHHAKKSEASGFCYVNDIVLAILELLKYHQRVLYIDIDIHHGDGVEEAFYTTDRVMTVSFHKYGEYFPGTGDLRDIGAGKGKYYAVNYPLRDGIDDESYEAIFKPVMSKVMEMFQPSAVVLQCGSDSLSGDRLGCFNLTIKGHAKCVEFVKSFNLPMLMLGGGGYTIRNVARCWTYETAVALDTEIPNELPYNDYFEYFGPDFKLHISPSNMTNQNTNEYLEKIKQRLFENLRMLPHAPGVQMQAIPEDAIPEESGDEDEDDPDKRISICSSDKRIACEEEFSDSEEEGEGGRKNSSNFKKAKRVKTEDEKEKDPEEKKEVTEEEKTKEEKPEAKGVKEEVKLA

[8] = Terminal half life in Sprague-Dawley rat at 2 mg/kg, iv administered as bolus dose by LC-MS/MS analysis; type: ADME, organism-based; conditions: in vivo, read-out: beta t1/2 (converted)
A549 [9] = assay: Antitumor activity against human A549 cells xenografted in BALB/C nude mouse assessed as inhibition of tumor growth administered orally once daily for 21 days starting day 11 after tumor cells implantation; type: functional, cell-based
[10] = Cmax in Sprague-Dawley rat at 20 mg/kg, po administered via gavage by LC-MS/MS analysis; type: ADME, organism-based; design: dose 20 mg/kg, route oral; conditions: in vivo
HCT-116 = assay: Antiproliferative activity against human HCT116 cells after 72 hrs by CCK8 assay; type: functional, cell-based; conditions: HCT-116, 72 h
A549 [11] = assay: Antitumor activity against human A549 cells xenografted in BALB/C nude mouse assessed as inhibition of tumor growth at 150 mg/kg, po administered once daily for 21 days starting day 11 after tumor cells implantation; type: functional; conditions: read-out: TGI
[12] = Cmax in Sprague-Dawley rat at 2 mg/kg, iv administered as bolus dose by LC-MS/MS analysis; type: ADME, organism-based; design: dose 2 mg/kg, route intravenous; conditions: in vivo
Histone deacetylase 8 = molecular target: T2, Histone deacetylase 8 (Homo sapiens, UniProt Q9BY41); assay: Inhibition of HDAC8 (unknown origin) after 30 mins by fluorescence assay
T2 sequence (Q9BY41 whole entry): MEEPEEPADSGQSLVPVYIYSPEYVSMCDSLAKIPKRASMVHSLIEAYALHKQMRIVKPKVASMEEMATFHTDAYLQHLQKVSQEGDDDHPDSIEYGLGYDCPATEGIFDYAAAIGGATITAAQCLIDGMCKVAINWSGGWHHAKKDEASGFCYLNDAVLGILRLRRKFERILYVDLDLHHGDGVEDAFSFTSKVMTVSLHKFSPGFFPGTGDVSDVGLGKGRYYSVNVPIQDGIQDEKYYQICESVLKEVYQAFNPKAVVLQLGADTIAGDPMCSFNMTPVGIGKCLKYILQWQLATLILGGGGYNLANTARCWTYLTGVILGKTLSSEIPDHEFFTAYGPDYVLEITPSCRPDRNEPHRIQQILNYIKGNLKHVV

[13] = Tmax in Sprague-Dawley rat at 20 mg/kg, po administered via gavage by LC-MS/MS analysis; type: ADME, organism-based; conditions: in vivo
Rattus norvegicus [14] = assay: Oral bioavailability in Sprague-Dawley rat at 20 mg/kg administered via gavage by LC-MS/MS analysis; type: ADME, organism-based; conditions: in vivo
[15] = Tmax in Sprague-Dawley rat at 2 mg/kg, iv administered as bolus dose by LC-MS/MS analysis; type: ADME, organism-based; conditions: in vivo
Mus musculus [16] = assay: Toxicity in human A549 cells xenografted in BALB/C nude mouse assessed as induction of adverse effects at 100 to 150 mg/kg, po administered once daily for 21 days starting day 11 after tumor cells implantation; type: organism-based; conditions: in vivo, 504 h
Rattus norvegicus [17] = assay: AUC (0 to infinity) in Sprague-Dawley rat at 20 mg/kg, po administered via gavage by LC-MS/MS analysis; type: ADME, organism-based; design: dose 20 mg/kg, route oral, time infinity; conditions: in vivo
Rattus norvegicus [18] = assay: Clearance in Sprague-Dawley rat at 2 mg/kg, iv administered as bolus dose by LC-MS/MS analysis; type: ADME, organism-based; conditions: in vivo
A549 [19] = assay: cells; conditions: Homo sapiens, A549, 48 h, read-out: Activity
NCI-H1299 = assay: Antiproliferative activity against human NCI-H1299 cells after 72 hrs by CCK8 assay; type: functional, cell-based; conditions: NCI-H1299, 72 h
A549 [20] = assay: cells; conditions: Homo sapiens, A549, 48 h, read-out: Activity; remark: listed apart in the source
[21] = Terminal half life in Sprague-Dawley rat at 20 mg/kg, po administered via gavage by LC-MS/MS analysis; type: ADME, organism-based; conditions: in vivo, read-out: beta t1/2 (converted)

Sequence of Histone deacetylase 3 (O15379 whole entry): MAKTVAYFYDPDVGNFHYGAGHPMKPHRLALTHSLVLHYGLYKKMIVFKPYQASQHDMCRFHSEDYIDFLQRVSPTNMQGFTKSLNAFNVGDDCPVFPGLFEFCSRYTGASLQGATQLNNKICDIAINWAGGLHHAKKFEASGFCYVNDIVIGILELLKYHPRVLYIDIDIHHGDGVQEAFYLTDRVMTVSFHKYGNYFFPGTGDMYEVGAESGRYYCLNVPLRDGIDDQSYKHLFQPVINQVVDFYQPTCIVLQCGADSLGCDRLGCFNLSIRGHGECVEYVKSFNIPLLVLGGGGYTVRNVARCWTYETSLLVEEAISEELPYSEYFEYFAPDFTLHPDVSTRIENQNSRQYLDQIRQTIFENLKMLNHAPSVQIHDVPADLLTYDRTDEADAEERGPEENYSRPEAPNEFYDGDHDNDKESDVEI

Compound: CCOc1cc(C(C)(C)C)ccc1C1=NC(c2ccc(Cl)cc2)C(c2ccc(Cl)cc2)N1C(=O)N1CCN(CCCCCCC(=O)NO)CC1 (stereo not drawn)
- IC50 (MCF7): 4340 nM
- Activity (Mus musculus [1]): Non-Toxic
- IC50 (Histone deacetylase 3): 178 nM
- Ki [2]: 110 nM
- IC50 (A549 [3]): 910 nM
- AUC (Rattus norvegicus [4]): 716.3 ng·h/mL
- IC50 (Histone deacetylase 2): 420 nM
- Vdss (Rattus norvegicus [5]): 4.9 L/kg
- IC50 [6]: 17.5 nM
- inhibition in vivo at 100 mg/kg (A549 [7]): 65.4%
- IC50 (Histone deacetylase 1): 820 nM
- half-life [8]: 1.22 h
- TGI (A549 [9]): Dose-dependent effect
- Cmax [10]: 93.7 ng/mL
- IC50 (HCT-116): 1080 nM
- inhibition in vivo at 150 mg/kg (A549 [11]): 74.5%
- Cmax [12]: 1470 ng/mL
- IC50 (Histone deacetylase 8): 1220 nM
- Tmax [13]: 3.33 h
- F (Rattus norvegicus [14]): 18%
- Tmax [15]: 4.98 min
- Activity (Mus musculus [16]): Non-Toxic
- AUC (Rattus norvegicus [17]): 323.23 ng·h/mL
- clearance (Rattus norvegicus [18]): 46.8 mL/min/kg
- viability at 5 µM (A549 [19]): 64.9%
- IC50 (NCI-H1299): 4160 nM
- viability at 1 µM (A549 [20]): 77.2%
- half-life [21]: 5.87 h

Reference: ChEMBL document CHEMBL4152341, “Small Molecules Simultaneously Inhibiting p53-Murine Double Minute 2 (MDM2) Interaction and Histone Deacetylases (HDACs): Discovery of Novel Multitargeting Antitumor Agents” (J Med Chem, 2018)
